Experimental data: ChEMBL document CHEMBL5055633, “Amphipathic Barbiturates as Mimics of Antimicrobial Peptides and the Marine Natural Products Eusynstyelamides with Activity against Multi-resistant Clinical Isolates” (J Med Chem, 2021)
Calls of active or inactive are those of the source. The rule behind the calls is not given here.

Legend:
[1] = tested on: HepG2; assay: Cytotoxicity against human HepG2 cells assessed as reduction in cell viability incubated for 24 hrs by colorimetric tetrazolium assay; assay type: functional, cell-based; settings: HepG2, 24 h
[2] = Hemolytic activity in human erythrocytes incubated for 1 hr by microplate reader; assay type: functional, cell-based; settings: erythrocyte
[3] = Toxicity in ip dosed mouse assessed as maximum tolerated dose; assay type: organism-based; settings: in vivo
[4] = tested on: Pseudomonas aeruginosa; assay: Antimicrobial activity against Pseudomonas aeruginosa PAO1 assessed as reduction in bacterial growth incubated for 48 hrs by microdilution susceptibility test; assay type: functional
[5] = tested on: Escherichia coli; assay: Antimicrobial activity against Escherichia coli ATCC 25922 assessed as reduction in bacterial growth incubated for 48 hrs by microdilution susceptibility test; assay type: functional
[6] = tested on: Corynebacterium glutamicum; assay: Antimicrobial activity against Corynebacterium glutamicum ATCC 13032 assessed as reduction in bacterial growth incubated for 48 hrs by microdilution susceptibility test; assay type: functional
[7] = tested on: Staphylococcus aureus; assay: Antimicrobial activity against Staphylococcus aureus ATCC 9144 assessed as reduction in bacterial growth incubated for 48 hrs by microdilution susceptibility test; assay type: functional
[8] = tested on: MRC5; assay: Cytotoxicity against human MRC5 cells assessed as reduction in cell viability incubated for 24 hrs by colorimetric tetrazolium assay; assay type: functional, cell-based; settings: MRC5, 24 h
[9] = tested on: Staphylococcus aureus; assay: Antimicrobial activity against extended spectrum-lactamase-carbapenemas producing Staphylococcus aureus N315 assessed as reduction in bacterial growth incubated for 48 hrs by microdilution method; assay type: functional
[10] = tested on: Staphylococcus aureus; assay: Antimicrobial activity against extended spectrum-lactamase-carbapenemas producing Staphylococcus aureus NCTC 10442 assessed as reduction in bacterial growth incubated for 48 hrs by microdilution method; assay type: functional
[11] = tested on: Staphylococcus aureus; assay: Antimicrobial activity against extended spectrum-lactamase-carbapenemas producing Staphylococcus aureus strain 85/2082 assessed as reduction in bacterial growth incubated for 48 hrs by microdilution method; assay type: functional
[12] = tested on: Staphylococcus aureus; assay: Antimicrobial activity against extended spectrum-lactamase-carbapenemas producing Staphylococcus aureus strain WIS assessed as reduction in bacterial growth incubated for 48 hrs by microdilution method; assay type: functional
[13] = tested on: Staphylococcus aureus; assay: Antimicrobial activity against extended spectrum-lactamase-carbapenemas producing Staphylococcus aureus strain IHT 99040 assessed as reduction in bacterial growth incubated for 48 hrs by microdilution method; assay type: functional
[14] = tested on: Enterococcus faecium; assay: Antimicrobial activity against extended spectrum-lactamase-carbapenemas producing Enterococcus faecium strain 50673722 assessed as reduction in bacterial growth incubated for 48 hrs by microdilution method; assay type: functional
[15] = tested on: Enterococcus faecium; assay: Antimicrobial activity against extended spectrum-lactamase-carbapenemas producing Enterococcus faecium strain 50901530 assessed as reduction in bacterial growth incubated for 48 hrs by microdilution method; assay type: functional
[16] = tested on: Enterococcus faecium; assay: Antimicrobial activity against extended spectrum-lactamase-carbapenemas producing Enterococcus faecium strain K36-18 assessed as reduction in bacterial growth incubated for 48 hrs by microdilution method; assay type: functional
[17] = tested on: Enterococcus faecium; assay: Antimicrobial activity against extended spectrum-lactamase-carbapenemas producing Enterococcus faecium strain 50758899 assessed as reduction in bacterial growth incubated for 48 hrs by microdilution method; assay type: functional
[18] = tested on: Enterococcus faecium; assay: Antimicrobial activity against extended spectrum-lactamase-carbapenemas producing Enterococcus faecium strain TUH.50-22 assessed as reduction in bacterial growth incubated for 48 hrs by microdilution method; assay type: functional
[19] = tested on: Escherichia coli; assay: Antimicrobial activity against oxacillinase-producing Escherichia coli 50579417 assessed as reduction in bacterial growth incubated for 48 hrs by microdilution method; assay type: functional
[20] = tested on: Escherichia coli; assay: Antimicrobial activity against verona integron-encoded metallo-beta-lactamase-29-producing Escherichia coli 50639799 assessed as reduction in bacterial growth incubated for 48 hrs by microdilution method; assay type: functional
[21] = tested on: Escherichia coli; assay: Antimicrobial activity against New Delhi metallo-beta lactamase-1 producing Escherichia coli 50676002 assessed as reduction in bacterial growth incubated for 48 hrs by microdilution method; assay type: functional
[22] = tested on: Escherichia coli; assay: Antimicrobial activity against New Delhi metallo-beta lactamase-1 producing Escherichia coli 50739822 assessed as reduction in bacterial growth incubated for 48 hrs by microdilution method; assay type: functional
[23] = tested on: Escherichia coli; assay: Antimicrobial activity against imipenem-type carbapenemase-26 producing Escherichia coli 50857972 assessed as reduction in bacterial growth incubated for 48 hrs by microdilution method; assay type: functional
[24] = tested on: Pseudomonas aeruginosa; assay: Antimicrobial activity against verona integron-encoded metallo-beta-lactamase-2 producing Pseudomonas aeruginosa K34-7 assessed as reduction in bacterial growth incubated for 48 hrs by microdilution method; assay type: functional
[25] = tested on: Pseudomonas aeruginosa; assay: Antimicrobial activity against verona integron-encoded metallo-beta-lactamase-4 producing Pseudomonas aeruginosa K34-73 assessed as reduction in bacterial growth incubated for 48 hrs by microdilution method; assay type: functional
[26] = tested on: Pseudomonas aeruginosa; assay: Antimicrobial activity against imipenem-type carbapenemase-14 producing Pseudomonas aeruginosa K44-24 assessed as reduction in bacterial growth incubated for 48 hrs by microdilution method; assay type: functional
[27] = tested on: Pseudomonas aeruginosa; assay: Antimicrobial activity against New Delhi metallo-beta lactamase-1 producing Pseudomonas aeruginosa 50692172 assessed as reduction in bacterial growth incubated for 48 hrs by microdilution method; assay type: functional
[28] = tested on: Pseudomonas aeruginosa; assay: Antimicrobial activity against verona integron-encoded metallo-beta-lactamase producing Pseudomonas aeruginosa 50692520 assessed as reduction in bacterial growth incubated for 48 hrs by microdilution method; assay type: functional
[29] = Antimicrobial activity against carbapenemase producing Klebsiella pneumoniae K47-25 assessed as reduction in bacterial growth incubated for 48 hrs by microdilution method; assay type: functional
[30] = Antimicrobial activity against New Delhi metallo-beta lactamase-1 Klebsiella pneumoniae K66-45 assessed as reduction in bacterial growth incubated for 48 hrs by microdilution method; assay type: functional
[31] = Antimicrobial activity against New Delhi metallo-beta lactamase-1 and oxacillinase -181 producing Klebsiella pneumoniae 50531633 assessed as reduction in bacterial growth incubated for 48 hrs by microdilution method; assay type: functional
[32] = Antimicrobial activity against oxacillinase-245 producing Klebsiella pneumoniae 50625602 assessed as reduction in bacterial growth incubated for 48 hrs by microdilution method; assay type: functional
[33] = Antimicrobial activity against verona integron-encoded metallo-beta-lactamase -1 producing Klebsiella pneumoniae 50667959 assessed as reduction in bacterial growth incubated for 48 hrs by microdilution method; assay type: functional
[34] = tested on: Acinetobacter baumannii; assay: Antimicrobial activity against oxacillinase-58 producing Acinetobacter baumannii K12-21 assessed as reduction in bacterial growth incubated for 48 hrs by microdilution method; assay type: functional
[35] = tested on: Acinetobacter baumannii; assay: Antimicrobial activity against oxacillinase-23 producing Acinetobacter baumannii K44-35 assessed as reduction in bacterial growth incubated for 48 hrs by microdilution method; assay type: functional
[36] = tested on: Acinetobacter baumannii; assay: Antimicrobial activity against oxacillinase-23 producing Acinetobacter baumannii K47-42 assessed as reduction in bacterial growth incubated for 48 hrs by microdilution method; assay type: functional
[37] = tested on: Acinetobacter baumannii; assay: Antimicrobial activity against oxacillinase-24 producing Acinetobacter baumannii K55-13 assessed as reduction in bacterial growth incubated for 48 hrs by microdilution method; assay type: functional
[38] = tested on: Acinetobacter baumannii; assay: Antimicrobial activity against oxacillinase-23 producing Acinetobacter baumannii K63-58 assessed as reduction in bacterial growth incubated for 48 hrs by microdilution method; assay type: functional
[39] = tested on: Escherichia coli; assay: Antibacterial activity against Escherichia coli EC106-09 infected in mouse peritonitis model assessed as reduction in colony forming unit at 1.4 mg/kg, ip relative to control; assay type: functional
[40] = tested on: Escherichia coli; assay: Antibacterial activity against Escherichia coli EC106-09 infected in mouse peritonitis model assessed as reduction in colony forming unit at 1.4 mg/kg, ip treatment repeated after 3 hrs relative to control; assay type: functional
[41] = tested on: Streptococcus pneumoniae; assay: Antibacterial activity against Klebsiella pneumoniae KP3010 infected in mouse peritonitis model assessed as reduction in colony forming unit at 1.4 mg/kg, ip relative to control; assay type: functional
[42] = tested on: Streptococcus pneumoniae; assay: Antibacterial activity against Klebsiella pneumoniae KP3010 infected in mouse peritonitis model assessed as reduction in colony forming unit at 1.4 mg/kg, ip treatment repeated after 3 hrs relative to control; assay type: functional
[43] = tested on: Mus musculus; assay: Toxicity in mouse assessed as tolerability at 2.8 to 3.6 mg/kg, ip; assay type: organism-based; settings: in vivo, dose 2.8-3.6 mg/kg
[44] = tested on: Streptococcus pneumoniae; assay: Antibacterial activity against in […] 168 assessed as decrease in bacterial viability at 6.3 ug/ml by cell viability assay; assay type: functional, organism-based; settings: dose 6.3 µg/ml
[45] = tested on: Escherichia coli; assay: Membrano-lytic effect in Escherichia coli HB101 assessed as decrease in bacterial viability at 6.3 ug/ml by luciferase based real-time membrane integrity assay; assay type: functional, organism-based; settings: dose 6.3 µg/ml
[46] = tested on: Escherichia coli; assay: Antibacterial activity against Escherichia coli HB101 assessed as decrease in bacterial viability at 6.3 ug/ml by cell viability assay; assay type: functional, organism-based; settings: dose 6.3 µg/ml
[47] = tested on: Escherichia coli; assay: Antibacterial activity against in Escherichia coli HB101 assessed as decrease in bacterial viability at 3.1 ug/ml by cell viability assay; assay type: functional, organism-based; settings: dose 3.1 µg/ml
[48] = tested on: Streptococcus pneumoniae; assay: Antibacterial activity against in […] 168 assessed as decrease in bacterial viability at 3.1 ug/ml by cell viability assay; assay type: functional, organism-based; settings: dose 3.1 µg/ml
[49] = tested on: Escherichia coli; assay: Membrano-lytic effect in Escherichia coli HB101 assessed as decrease in bacterial viability at 3.1 ug/ml by luciferase based real-time membrane integrity assay; assay type: functional, organism-based; settings: dose 3.1 µg/ml

N=C(N)NCCCCN1C(=O)N(CCCCNC(=N)N)C(=O)C(Cc2cc(Br)cc(Br)c2)(Cc2cc(Br)cc(Br)c2)C1=O.O=C(O)C(F)(F)F.O=C(O)C(F)(F)F
IC50 [1]: 30 µg/mL
EC50 [2]: 62 µg/mL
MTD [3]: 7 mg/kg
MIC [4]: 4 µg/mL
MIC [5]: 2 µg/mL
MIC [6]: 0.25 µg/mL
MIC [7]: 1 µg/mL
IC50 [8]: 11 µg/mL
MIC [9]: 2 µg/mL
MIC [10]: 2 µg/mL
MIC [11]: 2 µg/mL
MIC [12]: 2 µg/mL
MIC [13]: 2 µg/mL
MIC [14]: 4 µg/mL
MIC [15]: 2 µg/mL
MIC [16]: 4 µg/mL
MIC [17]: 4 µg/mL
MIC [18]: 2 µg/mL
MIC [19]: 4 µg/mL
MIC [20]: 4 µg/mL
MIC [21]: 4 µg/mL
MIC [22]: 4 µg/mL
MIC [23]: 4 µg/mL
MIC [24]: 8 µg/mL
MIC [25]: 8 µg/mL
MIC [26]: 8 µg/mL
MIC [27]: 8 µg/mL
MIC [28]: 16 µg/mL
MIC [29]: 4 µg/mL
MIC [30]: 4 µg/mL
MIC [31]: 4 µg/mL
MIC [32]: 4 µg/mL
MIC [33]: 4 µg/mL
MIC [34]: 4 µg/mL
MIC [35]: 4 µg/mL
MIC [36]: 4 µg/mL
MIC [37]: 8 µg/mL
MIC [38]: 4 µg/mL
inhibition in vivo at 1.4 mg/kg [39]: 90%
inhibition in vivo at 1.4 mg/kg [40]: 97%
inhibition in vivo at 1.4 mg/kg [41]: 98%
inhibition in vivo at 1.4 mg/kg [42]: 97%
Activity [43]: Non-Toxic
Activity [44]: Active
Activity [45]: Active
Activity [46]: Active
Activity [47]: Active
Activity [48]: Active
Activity [49]: Active

NCCCCN1C(=O)N(CCCCN)C(=O)C(Cc2cc(Br)cc(Br)c2)(Cc2cc(Br)cc(Br)c2)C1=O.O=C(O)C(F)(F)F.O=C(O)C(F)(F)F
IC50 [1]: 4 µg/mL
EC50 [2]: 79 µg/mL
MIC [4]: 8 µg/mL
MIC [5]: 4 µg/mL
MIC [6]: 1 µg/mL
MIC [7]: 4 µg/mL
IC50 [8]: 2 µg/mL
MIC [9]: 4 µg/mL
MIC [10]: 4 µg/mL
MIC [11]: 4 µg/mL
MIC [12]: 4 µg/mL
MIC [13]: 4 µg/mL
MIC [14]: 4 µg/mL
MIC [15]: 4 µg/mL
MIC [16]: 8 µg/mL
MIC [17]: 4 µg/mL
MIC [18]: 4 µg/mL
MIC [19]: 8 µg/mL
MIC [20]: 8 µg/mL
MIC [21]: 8 µg/mL
MIC [22]: 8 µg/mL
MIC [23]: 8 µg/mL
MIC [24]: 16 µg/mL
MIC [25]: 16 µg/mL
MIC [26]: 16 µg/mL
MIC [27]: 16 µg/mL
MIC [28]: 16 µg/mL
MIC [29]: 16 µg/mL
MIC [30]: 16 µg/mL
MIC [31]: 8 µg/mL
MIC [32]: 16 µg/mL
MIC [33]: 16 µg/mL
MIC [34]: 16 µg/mL
MIC [35]: 16 µg/mL
MIC [36]: 16 µg/mL
MIC [37]: 16 µg/mL
MIC [38]: 16 µg/mL
Activity [44]: Active
Activity [45]: Active
Activity [46]: Active
Activity [47]: Active
Activity [48]: Active
Activity [49]: Active
